Among the test systems are UO-31 renal; OVCAR-4 ovarian; UACC-62 melanoma; LOX IMVI melanoma; DLD-1 colon; OVCAR-8 ovarian; DMS 273 small cell lung; K-562 leukemia; NCI-H226 lung; T-47D breast.
What all share (assay): NCI anticancer screen, dose series, 48 h

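Briefly, cells in 96-well plates were exposed to five compound concentrations for 48 h, and endpoints were estimated by linear interpolation. GI50 marks 50% less growth. TGI is the concentration that stops growth completely.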

With `Cc1c2c(cc3c1C(=O)C(=O)C1=C3OC[C@@H]1C)C(C)(C)CCC2`, the TGI was found to be 46.1 µM in the experiment with UO-31 renal; 51.8 µM with OVCAR-4 ovarian; 25.9 µM in the experiment with UACC-62 melanoma; 20.5 µM with LOX IMVI melanoma; 59.5 µM with DLD-1 colon; 52.5 µM in the experiment with OVCAR-8 ovarian. The TGI in the experiment on DMS 273 small cell lung was 28.5 µM; in the experiment on K-562 leukemia, 34.5 µM.
As to `O=C1C(=O)N(c2ccc(Cl)cc2)C(=O)C(=O)C1c1nc2ccccc2s1`, the TGI in the experiment with UO-31 renal, in the experiment on OVCAR-4 ovarian, with UACC-62 melanoma, in the experiment with LOX IMVI melanoma, in the experiment with NCI-H226 lung and with OVCAR-8 ovarian was above 100 µM each time. In addition, the TGI in the experiment with DMS 273 small cell lung and in the experiment on K-562 leukemia was above 100 µM in each case.
For `Cc1ccc(Oc2ccccc2N)cc1`, the TGI with UO-31 renal was 44.9 µM; in the experiment on OVCAR-4 ovarian, above 100 µM; with UACC-62 melanoma it was above 100 µM; in the experiment with LOX IMVI melanoma, above 100 µM; in the experiment with DLD-1 colon it was above 100 µM; in the experiment on OVCAR-8 ovarian it was above 100 µM. Moreover, the TGI in the experiment with DMS 273 small cell lung and in the experiment on K-562 leukemia was above 100 µM throughout.
In the case of `O=C(O)c1cc(=O)c2c([nH]c3ccccc32)s1`, the TGI in the experiment with UO-31 renal, in the experiment with OVCAR-4 ovarian, in the experiment on UACC-62 melanoma, in the experiment with DLD-1 colon, in the experiment on OVCAR-8 ovarian and with K-562 leukemia was above 100 µM in each case.
In the case of `COC(=O)C1C(=O)CC2CCCCC21` (centres undefined), the TGI with UO-31 renal, in the experiment with OVCAR-4 ovarian, with UACC-62 melanoma, with NCI-H226 lung, with DLD-1 colon and in the experiment on DMS 273 small cell lung was above 100 µM throughout. In addition, the TGI with K-562 leukemia was above 100 µM.
`Cl/C(N=Nc1ccccc1)=N/Nc1ccccc1`: the TGI in the experiment with OVCAR-4 ovarian, in the experiment on LOX IMVI melanoma, in the experiment on NCI-H226 lung, in the experiment on OVCAR-8 ovarian, in the experiment with DMS 273 small cell lung and with K-562 leukemia was above 100 µM each time.
Turning to `CCc1cccc(C)c1N1C(=O)C(=O)C(c2nc3ccccc3o2)C(=O)C1=O`, the TGI with UO-31 renal, with OVCAR-4 ovarian, in the experiment on UACC-62 melanoma, in the experiment with NCI-H226 lung, in the experiment on DLD-1 colon and in the experiment with OVCAR-8 ovarian was above 100 µM throughout. The TGI with DMS 273 small cell lung and in the experiment with K-562 leukemia was above 100 µM in each case.
Consider `COc1ccc(OC(C(=O)O)C(C)C)c2c1CCCC2=O` (centres undefined), for which the TGI in the experiment on UO-31 renal, with OVCAR-4 ovarian, in the experiment on UACC-62 melanoma, in the experiment with LOX IMVI melanoma, in the experiment on DLD-1 colon and in the experiment on OVCAR-8 ovarian was above 100 µM in each case. Besides, the TGI in the experiment with DMS 273 small cell lung and in the experiment with K-562 leukemia was above 100 µM each time.
Take `O=C1C2=C(C(=O)c3cnccc31)C1C=CC2CC1` (centres undefined): the GI50 was 0.374 µM in the experiment with T-47D breast; 1.95 µM in the experiment on UO-31 renal; 0.316 µM in the experiment with OVCAR-4 ovarian; 1.92 µM in the experiment with UACC-62 melanoma; 0.773 µM in the experiment on LOX IMVI melanoma; 5.74 µM in the experiment on NCI-H226 lung. For the same molecule, the GI50 in the experiment on OVCAR-8 ovarian is 0.715 µM; in the experiment on K-562 leukemia it was 1.64 µM. Also, the TGI with T-47D breast was 1.5 µM; with UO-31 renal it was 3.69 µM; with OVCAR-4 ovarian it was 1.15 µM; in the experiment with UACC-62 melanoma it was 3.4 µM; in the experiment with LOX IMVI melanoma, 2.19 µM; in the experiment on NCI-H226 lung, 16.2 µM. In addition, the TGI in the experiment with OVCAR-8 ovarian came to 2.09 µM.
As to `CC1CN(S(=O)(=O)c2oc(-c3ccc(Cl)cc3)nc2C#N)CC(C)O1` (centres undefined), the GI50 was 2.3 µM in the experiment on T-47D breast; 1.56 µM in the experiment on UO-31 renal; 2.02 µM with OVCAR-4 ovarian; 3.08 µM in the experiment with UACC-62 melanoma; 0.926 µM with LOX IMVI melanoma; 18.1 µM in the experiment on NCI-H226 lung. In addition, the GI50 in the experiment with OVCAR-8 ovarian is 3.19 µM; in the experiment on K-562 leukemia it was 2.07 µM. Moreover, the TGI is 6.24 µM in the experiment on T-47D breast; 2.91 µM in the experiment with UO-31 renal; 4.65 µM in the experiment with OVCAR-4 ovarian; 11 µM in the experiment with UACC-62 melanoma; 2.35 µM with LOX IMVI melanoma; 39.9 µM in the experiment on NCI-H226 lung. In addition, the TGI is 21.2 µM in the experiment on OVCAR-8 ovarian and above 100 µM with K-562 leukemia.
Turning to `C#CCNC(=O)ON1C(=O)CCC1=O`, the TGI with UO-31 renal, in the experiment with OVCAR-4 ovarian, in the experiment on UACC-62 melanoma, with LOX IMVI melanoma, with DLD-1 colon and in the experiment with OVCAR-8 ovarian was above 100 µM in each case. Further, the TGI with DMS 273 small cell lung and with K-562 leukemia was above 100 µM throughout.
`Cc1cc(Cl)ccc1OCC(=O)Nc1nc(N)nc(N)n1`: the TGI in the experiment with T-47D breast, with UO-31 renal, in the experiment with OVCAR-4 ovarian, in the experiment on UACC-62 melanoma, with LOX IMVI melanoma and in the experiment on NCI-H226 lung was above 100 µM in each case. Besides, the TGI in the experiment on OVCAR-8 ovarian and in the experiment on K-562 leukemia was above 100 µM throughout.
Turning to `C[Si](C)(C)C(CCCCSc1ccccc1)(Sc1ccccc1)Sc1ccccc1`, the TGI in the experiment with UO-31 renal, in the experiment with OVCAR-4 ovarian, in the experiment on UACC-62 melanoma, in the experiment with LOX IMVI melanoma, in the experiment on DLD-1 colon and in the experiment with OVCAR-8 ovarian was above 100 µM throughout. The TGI in the experiment on DMS 273 small cell lung and with K-562 leukemia was above 100 µM each time.
Regarding `CC[C@@]1(OC(=O)CN)C(=O)OCc2c1cc1n(c2=O)Cc2c-1nc1cc3c(cc1c2CCl)OCO3`, the GI50 in the experiment with T-47D breast is below 0.01 µM; with UO-31 renal, below 0.01 µM; in the experiment with OVCAR-4 ovarian it was 0.381 µM; in the experiment with UACC-62 melanoma, below 0.01 µM; in the experiment with LOX IMVI melanoma it was below 0.01 µM; in the experiment on NCI-H226 lung, 0.0201 µM. Further, the GI50 was below 0.0105 µM in the experiment with OVCAR-8 ovarian and 0.0642 µM in the experiment on K-562 leukemia. The TGI in the experiment on T-47D breast was found to be 7.79 µM; with UO-31 renal, 1.44 µM; in the experiment on OVCAR-4 ovarian it was 11.3 µM; with UACC-62 melanoma it was 2.28 µM; in the experiment with LOX IMVI melanoma it was 5.03 µM; in the experiment with NCI-H226 lung, 0.397 µM. The TGI with OVCAR-8 ovarian was found to be 0.354 µM.

These data come from PubChem BioAssay (NCI).
